Drawing on patent US10745360B2, “Quinoxaline compounds, method for preparing the same and use thereof” (Development Center for Biotechnology, priority 2014, dated 2020), this text covers IC50 for twelve compounds.

One experiment has as its target T1, B-Raf^V600E kinase (Homo sapiens, UniProt P15056, V600E).
T1 construct: purchased Upstate Biotechnology
Briefly: B-Raf V600E kinase assay ([33P] incorporation into MEK1 K97R). The class given is biochemical. Particulars: recombinant B-Raf^V600E, 8 μM ATP, 30 min, 30° C.; read-out: IC50 ranking against B-Raf^V600E kinase. Summed up:
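Recombinant B-Raf V600E (5 ng) phosphorylating MEK1 K97R (500 ng) with 8 μM ATP plus [33P]ATP in Tris pH 7.5 buffer, 30 min at 30 °C. Filter-bound 33P counted by scintillation; IC50 from 3-fold dilution series in duplicate.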

In a further experiment the target is T2, C-Raf kinase (Homo sapiens, UniProt P04049).
T2 construct: purchased Upstate Biotechnology
Briefly: C-Raf kinase assay ([33P] incorporation into MEK1 K97R). In kind it is biochemical. Particulars: recombinant C-Raf, 8 μM ATP, 30 min, 30° C.; read-out: IC50 ranking against C-Raf kinase. Summed up:
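Recombinant C-Raf (2 ng) phosphorylating MEK1(K97R) with 8 μM ATP plus [33P]ATP, pH 7.5 Tris buffer, 30 min at 30° C. Acid-stopped, filter-captured 33P counted by scintillation; IC50 from 3-fold dilution series run in duplicate.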

For the next experiment, the target named is T3, B-Raf kinase (Homo sapiens, UniProt P15056).
T3 construct: purchased Upstate Biotechnology
Briefly: B-Raf kinase assay ([33P] incorporation into MEK1 K97R). Particulars: recombinant B-Raf, 8 μM ATP, 30 min, 30° C.; read-out: IC50 ranking against B-Raf kinase. The class given is biochemical. Summed up: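 Recombinant B-Raf (5 ng) phosphorylating MEK1 K97R (500 ng) with 8 μM ATP plus [33P]ATP in Tris/HCl pH 7.5 buffer, 30 min at 30° C. Filter-captured 33P counted by scintillation; IC50 from 3-fold serial dilutions run in duplicate.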

The test system of experiment [1] is B-Raf^V600E mutant COLO205 colon cancer cell. Briefly: Cell proliferation assay (CELLTITER 96), COLO205. The class given is cell-based. Particulars: Homo sapiens, COLO 205; COLO205, 72 hours; read-out: Cytotoxicity (IC50 Ranking) COLO205 (B-Raf^V600E). Summed up:
(§1)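 Cells seeded overnight (A375 and COLO205 at 2000, SK-MEL-2 at 4000 cells/well), then exposed to increasing compound concentrations for 72 h at 37° C. Viability read by MTS absorbance at 490 nm after 4 h reagent; IC50 from curve fit of percent growth inhibition versus concentration.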

The subject of experiment [2] is B-Raf^V600E mutant A375 melanoma cell. Briefly: Cell proliferation assay (CELLTITER 96), A375. The class given is cell-based. Particulars: Homo sapiens, A-375; A375, 72 hours; read-out: Cytotoxicity (IC50 Ranking) A375 (B-Raf^V600E). Summed up: as §1
In experiment [3] the test system is SK-MEL-2 melanoma cell with wild type B-Raf (B-Raf^wt) and NRAS^Q61R mutation. Briefly: Cell proliferation assay (CELLTITER 96), SK-MEL-2. In kind it is cell-based. Particulars: Homo sapiens; SK-MEL-2, 72 hours; given as bound; read-out: Cytotoxicity (IC50 Ranking) SK-MEL-2 (NRAS^Q61R, B-Raf^wt). Summed up:
as §1

T1 sequence (P15056 whole entry V600E): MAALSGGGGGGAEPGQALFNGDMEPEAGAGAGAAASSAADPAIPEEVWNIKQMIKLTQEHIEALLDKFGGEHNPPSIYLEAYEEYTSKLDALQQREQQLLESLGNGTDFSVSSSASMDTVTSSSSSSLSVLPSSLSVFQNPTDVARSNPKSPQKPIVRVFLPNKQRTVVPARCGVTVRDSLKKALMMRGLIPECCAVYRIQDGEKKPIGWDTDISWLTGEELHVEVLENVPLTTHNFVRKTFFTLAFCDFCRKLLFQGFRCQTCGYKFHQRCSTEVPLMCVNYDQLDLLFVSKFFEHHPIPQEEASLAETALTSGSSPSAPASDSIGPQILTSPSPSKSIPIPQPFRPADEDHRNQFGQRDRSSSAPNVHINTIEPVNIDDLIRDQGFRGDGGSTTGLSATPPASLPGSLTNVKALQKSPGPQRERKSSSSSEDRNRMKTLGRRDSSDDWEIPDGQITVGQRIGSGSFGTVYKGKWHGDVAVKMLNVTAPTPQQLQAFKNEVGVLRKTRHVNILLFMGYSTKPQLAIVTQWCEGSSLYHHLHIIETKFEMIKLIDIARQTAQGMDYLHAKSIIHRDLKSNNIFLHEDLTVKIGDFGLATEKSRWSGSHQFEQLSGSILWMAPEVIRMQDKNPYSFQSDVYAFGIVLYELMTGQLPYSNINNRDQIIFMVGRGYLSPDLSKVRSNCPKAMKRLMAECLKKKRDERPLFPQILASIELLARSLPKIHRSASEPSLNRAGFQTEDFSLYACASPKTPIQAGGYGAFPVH
T3 sequence (P15056 whole entry): as the sequence (P15056 whole entry V600E) above, with E600V counted along it
T2 sequence (P04049 whole entry): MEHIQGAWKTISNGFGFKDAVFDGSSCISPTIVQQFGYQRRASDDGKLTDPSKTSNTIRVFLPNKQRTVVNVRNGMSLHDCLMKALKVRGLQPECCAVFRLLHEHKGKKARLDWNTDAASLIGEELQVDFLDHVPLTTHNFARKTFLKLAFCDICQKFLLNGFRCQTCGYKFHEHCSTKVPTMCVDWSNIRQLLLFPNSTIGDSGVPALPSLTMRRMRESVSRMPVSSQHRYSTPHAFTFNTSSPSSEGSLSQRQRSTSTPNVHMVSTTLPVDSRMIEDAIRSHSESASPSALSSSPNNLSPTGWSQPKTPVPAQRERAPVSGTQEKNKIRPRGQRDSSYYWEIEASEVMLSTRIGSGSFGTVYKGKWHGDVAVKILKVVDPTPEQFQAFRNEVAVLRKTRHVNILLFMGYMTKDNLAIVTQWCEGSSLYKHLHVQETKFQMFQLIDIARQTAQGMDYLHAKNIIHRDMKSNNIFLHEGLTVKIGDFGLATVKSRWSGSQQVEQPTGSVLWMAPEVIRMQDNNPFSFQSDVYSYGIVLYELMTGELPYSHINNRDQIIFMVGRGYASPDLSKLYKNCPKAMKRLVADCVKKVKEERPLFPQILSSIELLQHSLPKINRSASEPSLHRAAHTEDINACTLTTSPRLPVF

With `COc1cnc2ccc(Nc3cc(NS(=O)(=O)c4ccccc4)ccc3F)c(C#N)c2n1` [compound 35, N-(3-(5-cyano-3-methoxyquinoxalin-6-ylamino)-4-fluorophenyl)benzenesulfonamide], the half-inhibitory concentration (IC50) (usually the concentration that gives 50% inhibition) was < 300 nM at B-Raf^V600E kinase; < 300 nM at C-Raf kinase; < 300 nM on B-Raf kinase; < 300 nM in experiment [1]; < 300 nM in experiment [2]; > 10000 nM in experiment [3].
For the compound `CCCS(=O)(=O)N(C)c1ccc(F)c(Nc2ccc3ncc(OC)nc3c2C#N)c1F` [compound 43, N-(3-(5-cyano-3-methoxyquinoxalin-6-ylamino)-2,4-difluorophenyl)-N-methylpropane-1-sulfonamide], the half-inhibitory concentration (IC50) is < 300 nM at B-Raf^V600E kinase; < 300 nM on C-Raf kinase; < 300 nM at B-Raf kinase; < 300 nM in experiment [1]; < 300 nM in experiment [2]; > 10000 nM in experiment [3].
`CCCS(=O)(=O)Nc1ccc(F)c(Nc2ccc3ncc(OCC)nc3c2C#N)c1` [compound 36, N-(3-(5-cyano-3-ethoxyquinoxalin-6-ylamino)-4-fluorophenyl)propane-1-sulfonamide]: the half-maximal inhibitory concentration (IC50) at B-Raf^V600E kinase is < 300 nM; on C-Raf kinase, < 300 nM; at B-Raf kinase it was < 300 nM; in experiment [1], < 300 nM; in experiment [2], < 300 nM; in experiment [3], > 10000 nM.
Consider `COc1cnc2ccc(Nc3c(F)ccc(NS(=O)(=O)CCCF)c3F)c([N+](=O)[O-])c2n1` [compound 5, N1-{2,4-difluoro-3-[(3-methoxy-5-nitro-6-quinoxalinyl)amino]phenyl}-3-fluoro-1-propanesulfonamide], for which the IC50 on B-Raf^V600E kinase is < 300 nM; on C-Raf kinase, < 300 nM; on B-Raf kinase, < 300 nM; in experiment [1], < 300 nM; in experiment [2], < 300 nM; in experiment [3], > 10000 nM.
In the case of `CCOc1cnc2ccc(Nc3cc(NS(=O)(=O)c4ccccc4)ccc3F)c(C#N)c2n1` [compound 24, N-(3-(5-cyano-3-ethoxyquinoxalin-6-ylamino)-4-fluorophenyl)benzenesulfonamide], the half-maximal inhibitory concentration (IC50) at B-Raf^V600E kinase is < 300 nM; on C-Raf kinase, < 300 nM; on B-Raf kinase, < 300 nM; in experiment [1] it was < 300 nM; in experiment [2] it was 300 to 1000 nM; in experiment [3], > 10000 nM.
As for `N#Cc1c(Nc2cc(NS(=O)(=O)c3ccccc3)ccc2F)ccc2ncc(N3CCOCC3)nc12` [compound 25, N-(3-(5-cyano-3-morpholinoquinoxalin-6-ylamino)-4-fluorophenyl)benzenesulfonamide], the half-maximal inhibitory concentration (IC50) on B-Raf^V600E kinase was < 300 nM; on C-Raf kinase, < 300 nM; on B-Raf kinase, < 300 nM; in experiment [1], < 300 nM; in experiment [2] it was 300 to 1000 nM; in experiment [3], > 10000 nM.
As for `CCCS(=O)(=O)Nc1ccc(F)c(Nc2ccc3ncc(OCCN4CCOCC4)nc3c2[N+](=O)[O-])c1F` [compound 6, N1-(2,4-difluoro-3-{[3-(2-morpholinoethoxy)-5-nitro-6-quinoxalinyl]amino}phenyl)-1-propanesulfonamide], the half-maximal inhibitory concentration (IC50) was < 300 nM at B-Raf^V600E kinase; < 300 nM on C-Raf kinase; < 300 nM on B-Raf kinase; < 300 nM in experiment [1]; < 300 nM in experiment [2]; > 10000 nM in experiment [3].
With `COc1cnc2ccc(Nc3cc(NS(C)(=O)=O)ccc3F)c(C#N)c2n1` [compound 41, N-(3-(5-cyano-3-methoxyquinoxalin-6-ylamino)-4-fluorophenyl)methanesulfonamide], the IC50 on B-Raf^V600E kinase is 1000 to 10000 nM; at C-Raf kinase it was 1000 to 10000 nM; on B-Raf kinase, 1000 to 10000 nM; in experiment [1], 1000 to 10000 nM; in experiment [2], 1000 to 10000 nM; in experiment [3], > 10000 nM.
Consider `CCCS(=O)(=O)Nc1ccc(F)c(Nc2ccc3ncc(N(C)C)nc3c2C#N)c1F` [compound 18, N-(3-(5-cyano-3-(dimethylamino)quinoxalin-6-ylamino)-2,4-difluorophenyl)propane-1-sulfonamide], for which the concentration for half-maximal inhibition (IC50) was < 300 nM at B-Raf^V600E kinase; < 300 nM at C-Raf kinase; < 300 nM on B-Raf kinase; < 300 nM in experiment [1]; < 300 nM in experiment [2]; > 10000 nM in experiment [3].
`CCCS(=O)(=O)Nc1ccc(F)c(Nc2ccc3ncc(OC)nc3c2[N+](=O)[O-])c1F` [compound 4, N1-{2,4-difluoro-3-[(3-methoxy-5-nitro-6-quinoxalinyl)amino]phenyl}-1-propanesulfonamide]: the IC50 at B-Raf^V600E kinase was < 300 nM; at C-Raf kinase, < 300 nM; on B-Raf kinase it was < 300 nM; in experiment [1], < 300 nM; in experiment [2] it was < 300 nM; in experiment [3], > 10000 nM.
For the compound `CCCS(=O)(=O)Nc1ccc(F)c(Nc2ccc3ncc(O)nc3c2C#N)c1F` [compound 15, N1-{3-[(5-cyano-3-hydroxy-6-quinoxalinyl)amino]-2,4-difluorophenyl}-1-propanesulfonamide], the 50% inhibitory concentration (IC50) on B-Raf^V600E kinase was < 300 nM; on C-Raf kinase, < 300 nM; at B-Raf kinase, < 300 nM; in experiment [1] it was 300 to 1000 nM; in experiment [2], 300 to 1000 nM; in experiment [3], > 10000 nM.
Turning to `CCCS(=O)(=O)Nc1ccc(F)c(Nc2ccc3ncc(OC)nc3c2C(=O)OC)c1F` [compound 31, methyl 6-(2,6-difluoro-3-(propylsulfonamido)phenylamino)-3-methoxyquinoxaline-5-carboxylate], the IC50 was < 300 nM on B-Raf^V600E kinase; < 300 nM on C-Raf kinase; < 300 nM on B-Raf kinase; 300 to 1000 nM in experiment [1]; 300 to 1000 nM in experiment [2]; > 10000 nM in experiment [3].
